From ChEMBL document CHEMBL5233266, “β-Carboline as a Privileged Scaffold for Multitarget Strategies in Alzheimer's Disease Therapy” (J Med Chem, 2021)
Where “and” joins values, the source holds several entries; their conditions need not be identical. Equal entries are not always repeated.

Columns and labels:
[1] = molecular target: cGMP-specific 3',5'-cyclic phosphodiesterase (Homo sapiens, UniProt O76074); assay: Inhibition of PDE5 (unknown origin)
[2] = molecular target: GABA-A receptor; anion channel; assay: Displacement of [3H]flunitrazepam from GABAA (unknown origin ) receptor by radioligand binding assay; assay type: protein-complex assay, Homo sapiens
[3] = molecular target: T1, Gamma-aminobutyric acid receptor subunit alpha-5 (Homo sapiens, UniProt P31644); assay: Binding affinity to human recombinant GABAA alpha5 receptor assessed as inhibition constant incubated for 1 hrs by liquid scintillation counting analysis
T1 sequence (P31644 whole entry): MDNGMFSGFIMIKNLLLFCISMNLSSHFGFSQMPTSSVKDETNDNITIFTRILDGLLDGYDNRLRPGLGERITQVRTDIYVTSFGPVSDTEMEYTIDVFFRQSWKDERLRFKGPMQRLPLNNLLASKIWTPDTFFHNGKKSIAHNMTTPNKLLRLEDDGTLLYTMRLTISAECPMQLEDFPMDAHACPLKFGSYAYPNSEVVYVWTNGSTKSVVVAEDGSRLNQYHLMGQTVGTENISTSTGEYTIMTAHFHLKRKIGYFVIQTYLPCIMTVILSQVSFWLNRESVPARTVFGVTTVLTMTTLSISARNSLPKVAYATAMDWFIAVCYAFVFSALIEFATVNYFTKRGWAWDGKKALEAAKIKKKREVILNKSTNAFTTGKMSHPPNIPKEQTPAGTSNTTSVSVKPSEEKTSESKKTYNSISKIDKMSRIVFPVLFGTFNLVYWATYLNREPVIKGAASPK

[4] = molecular target: Gamma-aminobutyric acid receptor subunit alpha-6 (Homo sapiens, UniProt Q16445); assay: Binding affinity to human recombinant GABAA alpha6 receptor assessed as inhibition constant incubated for 1 hrs by liquid scintillation counting analysis
[5] = molecular target: T2, Gamma-aminobutyric acid receptor subunit alpha-1 (Homo sapiens, UniProt P14867); assay: Binding affinity to human recombinant GABAA alpha1 receptor assessed as inhibition constant incubated for 1 hrs by liquid scintillation counting analysis
T2 sequence (P14867 whole entry): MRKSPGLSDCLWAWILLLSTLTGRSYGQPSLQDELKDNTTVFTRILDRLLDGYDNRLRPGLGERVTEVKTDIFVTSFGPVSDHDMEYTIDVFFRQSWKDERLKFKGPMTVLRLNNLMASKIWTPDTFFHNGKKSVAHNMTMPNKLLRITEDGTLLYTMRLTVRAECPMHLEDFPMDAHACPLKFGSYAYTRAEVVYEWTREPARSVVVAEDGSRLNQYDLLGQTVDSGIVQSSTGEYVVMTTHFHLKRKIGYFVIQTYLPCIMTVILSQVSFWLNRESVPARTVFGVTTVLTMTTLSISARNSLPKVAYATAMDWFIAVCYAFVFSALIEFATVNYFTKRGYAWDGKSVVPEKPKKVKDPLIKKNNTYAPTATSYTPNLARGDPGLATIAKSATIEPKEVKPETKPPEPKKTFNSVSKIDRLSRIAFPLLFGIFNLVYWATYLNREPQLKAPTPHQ

[6] = molecular target: T3, Gamma-aminobutyric acid receptor subunit alpha-2 (Homo sapiens, UniProt P47869); assay: Binding affinity to human recombinant GABAA alpha2 receptor assessed as inhibition constant incubated for 1 hrs by liquid scintillation counting analysis
T3 sequence (P47869 whole entry): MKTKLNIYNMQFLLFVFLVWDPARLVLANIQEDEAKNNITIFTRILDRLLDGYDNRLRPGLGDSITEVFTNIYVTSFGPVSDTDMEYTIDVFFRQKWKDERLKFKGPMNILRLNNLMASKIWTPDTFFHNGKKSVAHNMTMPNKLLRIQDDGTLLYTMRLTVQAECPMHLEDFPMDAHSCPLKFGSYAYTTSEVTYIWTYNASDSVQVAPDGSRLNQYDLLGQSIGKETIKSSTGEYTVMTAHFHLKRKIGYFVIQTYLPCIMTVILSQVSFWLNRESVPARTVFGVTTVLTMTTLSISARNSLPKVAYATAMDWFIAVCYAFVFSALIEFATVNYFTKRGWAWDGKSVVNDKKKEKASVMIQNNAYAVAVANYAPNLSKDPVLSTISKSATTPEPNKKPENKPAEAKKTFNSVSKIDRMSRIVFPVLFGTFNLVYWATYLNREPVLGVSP

[7] = molecular target: T4, Gamma-aminobutyric acid receptor subunit alpha-3 (Homo sapiens, UniProt P34903); assay: Binding affinity to human recombinant GABAA alpha3 receptor assessed as inhibition constant incubated for 1 hrs by liquid scintillation counting analysis
T4 sequence (P34903 whole entry): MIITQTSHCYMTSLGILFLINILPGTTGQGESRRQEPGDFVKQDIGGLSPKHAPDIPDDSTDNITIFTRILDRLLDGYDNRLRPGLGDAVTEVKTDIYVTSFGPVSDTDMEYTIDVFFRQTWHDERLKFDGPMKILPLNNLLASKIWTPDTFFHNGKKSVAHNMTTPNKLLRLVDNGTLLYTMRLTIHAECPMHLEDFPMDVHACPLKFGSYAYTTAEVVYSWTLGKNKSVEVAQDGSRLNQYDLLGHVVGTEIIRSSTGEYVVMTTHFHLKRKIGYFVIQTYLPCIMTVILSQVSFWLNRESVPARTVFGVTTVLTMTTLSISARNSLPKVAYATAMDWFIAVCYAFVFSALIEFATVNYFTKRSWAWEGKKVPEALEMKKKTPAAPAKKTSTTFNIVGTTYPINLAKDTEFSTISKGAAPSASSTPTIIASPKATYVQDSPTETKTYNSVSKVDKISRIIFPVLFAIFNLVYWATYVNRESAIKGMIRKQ

Cholinesterase = Cholinesterase (Homo sapiens, UniProt P06276); assay: Inhibition of BuChE (unknown origin)
Acetylcholinesterase = Acetylcholinesterase (Homo sapiens, UniProt P22303); assay: Inhibition of AChE (unknown origin)
Sequence of Acetylcholinesterase (P22303 whole entry): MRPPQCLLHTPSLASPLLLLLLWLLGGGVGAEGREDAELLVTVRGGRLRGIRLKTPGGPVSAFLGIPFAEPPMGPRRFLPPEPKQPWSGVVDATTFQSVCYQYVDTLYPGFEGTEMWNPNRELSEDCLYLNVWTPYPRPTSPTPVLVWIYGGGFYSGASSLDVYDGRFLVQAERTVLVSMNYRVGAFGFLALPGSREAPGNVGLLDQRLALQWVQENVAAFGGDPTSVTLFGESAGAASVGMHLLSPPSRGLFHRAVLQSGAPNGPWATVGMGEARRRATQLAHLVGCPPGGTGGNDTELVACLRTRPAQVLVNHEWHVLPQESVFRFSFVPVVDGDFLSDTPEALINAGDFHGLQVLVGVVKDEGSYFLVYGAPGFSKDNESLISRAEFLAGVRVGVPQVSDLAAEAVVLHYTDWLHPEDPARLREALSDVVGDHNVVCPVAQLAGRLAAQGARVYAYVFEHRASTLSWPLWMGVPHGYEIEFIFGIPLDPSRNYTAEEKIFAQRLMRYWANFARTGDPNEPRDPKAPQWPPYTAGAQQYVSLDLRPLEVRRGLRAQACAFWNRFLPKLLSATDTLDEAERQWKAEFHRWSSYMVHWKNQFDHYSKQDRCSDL

Sequence of Gamma-aminobutyric acid receptor subunit alpha-6 (Q16445 whole entry): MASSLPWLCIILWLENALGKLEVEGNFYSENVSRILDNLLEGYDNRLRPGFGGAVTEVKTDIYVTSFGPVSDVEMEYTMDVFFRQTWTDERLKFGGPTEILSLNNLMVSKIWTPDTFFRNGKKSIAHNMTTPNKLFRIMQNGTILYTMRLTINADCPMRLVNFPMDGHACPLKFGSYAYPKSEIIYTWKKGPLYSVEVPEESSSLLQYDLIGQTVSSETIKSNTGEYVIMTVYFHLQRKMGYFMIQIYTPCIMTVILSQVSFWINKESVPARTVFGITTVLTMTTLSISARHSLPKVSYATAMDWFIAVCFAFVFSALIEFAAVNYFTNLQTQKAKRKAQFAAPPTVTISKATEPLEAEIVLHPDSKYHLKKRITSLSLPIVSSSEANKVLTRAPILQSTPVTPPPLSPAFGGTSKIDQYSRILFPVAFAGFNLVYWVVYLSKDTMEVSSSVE
Sequence of Cholinesterase (P06276 whole entry): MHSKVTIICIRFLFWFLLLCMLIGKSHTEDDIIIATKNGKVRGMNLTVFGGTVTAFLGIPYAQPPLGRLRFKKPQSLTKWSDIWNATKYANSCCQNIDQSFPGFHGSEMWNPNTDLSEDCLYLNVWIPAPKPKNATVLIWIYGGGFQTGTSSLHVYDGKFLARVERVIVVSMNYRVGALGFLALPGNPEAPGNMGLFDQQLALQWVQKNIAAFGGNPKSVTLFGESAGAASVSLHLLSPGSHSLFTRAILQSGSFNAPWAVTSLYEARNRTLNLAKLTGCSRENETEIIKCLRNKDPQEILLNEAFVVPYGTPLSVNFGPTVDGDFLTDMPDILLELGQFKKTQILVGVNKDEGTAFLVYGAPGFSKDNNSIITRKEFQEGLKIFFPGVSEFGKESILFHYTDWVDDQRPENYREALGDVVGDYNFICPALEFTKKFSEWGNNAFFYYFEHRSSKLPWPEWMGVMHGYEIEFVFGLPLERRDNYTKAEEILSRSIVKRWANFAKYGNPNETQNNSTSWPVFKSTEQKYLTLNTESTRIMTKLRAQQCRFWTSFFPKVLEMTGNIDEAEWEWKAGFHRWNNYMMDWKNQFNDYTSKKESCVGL

## CCCCN1CC(=O)N2C(Cc3c([nH]c4ccccc34)C2c2ccc3c(c2)OCO3)C1=O (configuration not stated)
[1]
  IC50: 3 nM

## CCCCN1CC(=O)N2[C@H](c3ccc(Br)cc3)c3[nH]c4ccccc4c3C[C@H]2C1=O
[1]
  IC50: 10 nM

## CCOC(=O)c1ncc2[nH]c3cccc(OC(C)C)c3c2c1C
[2]
  IC50: 0.4 nM

## CCOC(=O)c1ncc2[nH]c3cccc(OCc4ccccc4)c3c2c1COC
[2]
  IC50: 0.2 nM

## CCOC(=O)c1nc(C)c2[nH]c3cc(OC)c(OC)cc3c2c1CC
[3]
  Ki: 3 nM
[4]
  Ki: 75 nM
[5]
  Ki: 6 nM
[6]
  Ki: 19 nM
[7]
  Ki: 4 nM

## CCOC(=O)c1ncc2[nH]c3ccc(OCc4ccccc4)cc3c2c1COC
[2]
  IC50: 0.5 nM
[3]
  Ki: 5 nM
[4]
  Ki: > 1000 nM
[5]
  Ki: 4 nM
[6]
  Ki: 4 nM
[7]
  Ki: 6 nM

## COc1ccc2c(c1)[nH]c1c(C(C)=O)nccc12 [ARENARINE C]
Cholinesterase
  IC50: 27000 nM
Acetylcholinesterase
  IC50: 4000 nM

## COc1ccc([C@@H]2N[C@@H](C(=O)O)Cc3c2n(C)c2ccccc32)cc1OC
Acetylcholinesterase
  IC50: 2500 nM

## O=C1C2Cc3c([nH]c4ccccc34)C(c3ccc4c(c3)OCO4)N2C(=O)CN1C1CCCCC1 (configuration not stated)
[1]
  IC50: 3 nM

## CCOC(=O)c1cc2c(cn1)[nH]c1ccccc12
[5]
  Ki: 1 nM

## O=C1C2Cc3c([nH]c4ccccc34)[C@@H](c3ccc4c(c3)OCO4)N2C(=O)CN1CCC1CCN(Cc2ccccc2)CC1 (some centres not stated)
Acetylcholinesterase
  IC50: 36 nM
[1]
  IC50: 150 nM

## CCCC(=O)c1cc2c(cn1)[nH]c1ccccc12
[2]
  IC50: 3 nM
[3]
  Ki: 1000 nM
[4]
  Ki: > 3000 nM
[5]
  Ki: 2 nM
[6]
  Ki: 16 nM
[7]
  Ki: 21 nM

## COc1ccc(-[n+]2ccc3c4ccccc4n(C)c3c2)cc1
Cholinesterase
  IC50: 32000 nM and 116000 nM
Acetylcholinesterase
  IC50: 300 nM

## COC(=O)c1cc2c(cn1)[nH]c1ccc(NCc3ccccc3)cc12
[2]
  IC50: 4 nM
[3]
  Ki: 480 nM
[4]
  Ki: > 10000 nM
[5]
  Ki: 5 nM
[6]
  Ki: 30 nM
[7]
  Ki: 49 nM

## CCN1C(=O)[C@H]2Cc3c([nH]c4ccccc34)[C@@H](c3ccc(Br)s3)N2C1=O
[1]
  IC50: 170 nM

## O=C1[C@H]2Cc3c([nH]c4ccccc34)[C@@H](c3ccc4c(c3)OCO4)N2C(=O)CN1[C@@H]1CCN(Cc2cccnc2)C1
[1]
  IC50: 2 nM

## CN1CCN(C(=O)c2ccc(-c3ccc(C(=O)N4CCc5c([nH]c6ccccc56)C4c4ccc5c(c4)OCO5)o3)cc2)CC1 (configuration not stated)
[1]
  IC50: 8 nM

## COc1ccc(N2CC(=O)N3[C@H](c4ccc5c(c4)OCO5)c4[nH]c5ccccc5c4C[C@@H]3C2=O)cc1
[1]
  IC50: 16 nM

## O=c1c2cc(NS(=O)(=O)c3ccccc3OC(F)(F)F)ccc2cc2n1CCc1c-2[nH]c2ccccc12
Cholinesterase
  IC50: 3600 nM

## CCCOC(=O)c1cc2c(cn1)[nH]c1ccccc12
[2]
  IC50: 1 nM

## CCN1C(=O)C2Cc3c([nH]c4ccccc34)C(c3ccc(OC)cc3)N2C1=O (configuration not stated)
[1]
  IC50: 3 nM

## O=C1C2Cc3c([nH]c4ccccc34)C(c3ccc4c(c3)OCO4)N2C(=O)CN1Cc1ccccc1 (configuration not stated)
[1]
  IC50: 3 nM

## COC(=O)c1cc2c(cn1)[nH]c1ccc(O)cc12
[2]
  IC50: 4 nM

## CCc1c(C(=O)OC)nc(C)c2[nH]c3cc(OC)c(OC)cc3c12
[3]
  Ki: 1 nM
[4]
  Ki: 130 nM
[5]
  Ki: 6 nM
[6]
  Ki: 8 nM
[7]
  Ki: 4 nM

## CCCCN1CC2Cc3c([nH]c4ccccc34)C(c3ccc(OC)cc3)N2C1=O (configuration not stated)
[1]
  IC50: 60 nM

## c1ccc2c(c1)[nH]c1c2ncc2[nH]c3ccccc3c21
[3]
  Ki: 40 nM
[4]
  Ki: > 1000 nM
[5]
  Ki: 1 nM
[6]
  Ki: 1 nM
[7]
  Ki: 1 nM

## O=C1[C@H]2Cc3c([nH]c4ccccc34)[C@@H](c3ccc4c(c3)OCO4)N2C(=O)CN1[C@@H]1CCN(Cc2ncc[nH]2)C1
[1]
  IC50: 0.8 nM

## Cn1ccnc1CN1CC[C@@H](N2CC(=O)N3[C@H](c4ccc5c(c4)OCO5)c4[nH]c5ccccc5c4C[C@@H]3C2=O)C1
[1]
  IC50: 0.8 nM

## COC(=O)[C@@H]1Cc2c([nH]c3ccccc23)[C@@H](c2ccc(Cl)cc2)N1C(=O)CCl
[1]
  IC50: 2700 nM

## CCCCN1C(=O)[C@@H]2Cc3c([nH]c4ccccc34)[C@@H](c3ccc(Br)cc3)N2C1=O
[1]
  IC50: 40 nM

## CCN1C(=O)[C@@H]2Cc3c([nH]c4ccccc34)[C@@H](c3ccc(Br)cc3)N2C1=O
[1]
  IC50: 40 nM

## CCOC(=O)c1ncc2[nH]c3ccc(OC)cc3c2c1COC
[2]
  IC50: 0.5 nM
[3]
  Ki: 4 nM
[5]
  Ki: 0.1 nM
[6]
  Ki: 1 nM
[7]
  Ki: 2 nM

## N#Cc1cc2c(cn1)[nH]c1ccccc12
[2]
  IC50: 3 nM

## CC(C)(C)COC(=O)c1cc2c(cn1)[nH]c1ccccc12
[2]
  IC50: 750 nM

## CCCCN1CC2Cc3c([nH]c4ccccc34)C(c3ccc4c(c3)OCO4)N2C1=O (configuration not stated)
[1]
  IC50: 60 nM

## COc1ccc2c3ccnc(C)c3n(CC3CC(c4ccccc4)=NO3)c2c1 (configuration not stated)
Acetylcholinesterase
  IC50: 11000 nM

## Cn1c2ccccc2c2cc[n+](-c3ccc(Cl)cc3)cc21
Cholinesterase
  IC50: 32000 nM and 116000 nM
Acetylcholinesterase
  IC50: 560 nM and 300 nM

## COc1ccc2c3c([nH]c2c1N)C(C)NCC3 (configuration not stated)
Acetylcholinesterase
  IC50: 2000 nM

## CCOC(=O)c1ncc2[nH]c3ccc(O)cc3c2c1COC
[2]
  IC50: 0.5 nM
[3]
  Ki: 19 nM
[4]
  Ki: 3000 nM
[5]
  Ki: 2 nM
[6]
  Ki: 5 nM
[7]
  Ki: 11 nM

## C#CCn1c2cc(OC)ccc2c2ccnc(C)c21
Acetylcholinesterase
  IC50: 1900 nM

## O=C(NCCCCCCNc1c2c(nc3ccccc13)CCCC2)[C@@H]1Cc2c([nH]c3ccccc23)CN1
Cholinesterase
  INH: 22 nM
Acetylcholinesterase
  IC50: 22 nM

## S=C=Nc1cc2c(cn1)[nH]c1ccccc12
[2]
  IC50: 3 nM
[5]
  Ki: 5 nM

## CCCOc1ccc2[nH]c3cnc(C(=O)OCC)c(COC)c3c2c1
[2]
  IC50: 0.5 nM
[3]
  Ki: 2 nM
[4]
  Ki: 1300 nM
[5]
  Ki: 0.5 nM
[6]
  Ki: 1 nM
[7]
  Ki: 2 nM

## O=C1[C@@H]2Cc3c([nH]c4ccccc34)[C@@H](c3ccc4c(c3)OCO4)N2C(=O)CN1CCC1CCN(Cc2ccccc2)CC1
Acetylcholinesterase
  IC50: 32 nM
[1]
  IC50: 1500 nM

## CCN1C(=O)[C@@H]2Cc3c([nH]c4ccccc34)[C@@H](c3ccc(Cl)cc3)N2C1=O
[1]
  IC50: 330 nM

## CC(C)N1CC(=O)N2C(Cc3c([nH]c4ccccc34)C2c2ccc3c(c2)OCO3)C1=O (configuration not stated)
[1]
  IC50: 3 nM

## CCOC(=O)c1ncc2[nH]c3ccccc3c2c1COC
[2]
  IC50: 0.5 nM
[3]
  Ki: 10 nM
[4]
  Ki: 1200 nM
[5]
  Ki: 0.6 nM
[6]
  Ki: 3 nM
[7]
  Ki: 5 nM

## O=C(O)c1cc2c(cn1)[nH]c1ccccc12
[2]
  IC50: 31000 nM

## COc1ccc(C2c3[nH]c4ccccc4c3CC3C(=O)N(C4CCCCC4)C(=O)N32)cc1 (configuration not stated)
[1]
  IC50: 3 nM
